Experimental findings from the supplement of paper PMC10307832 are described below.

Holding throughout (test): relative viability (nuclei count vs DMSO), 5 days (fraction); higher = more cells survive
Compound in experiment [1]: C/C(=N\NC(=S)N1CCC1)/C2=CC=CC=N2 + COc1cc2c(Oc3ccc(NC(=O)C4(C(=O)Nc5ccc(F)cc5)CC4)cc3F)ccnc2cc1OCCCN1CCOCC1 [Foretinib] (partner 0.25 µM)
In a few lines: (§1)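 Lung cancer cell lines in 1536-well plates were dosed by pin tool the day after seeding, either with one drug alone or with a fixed anchor-drug dose plus five library-drug doses (not always all listed) in √10 steps. After 5 days, cells were fixed and their nuclei stained in one step (final 0.05% Triton X-100, 1% formaldehyde, 1 ug/ml Hoechst), then counted on 4× images. Relative viability is the nuclei count in treated wells divided by that in vehicle wells. Values are medians of duplicate plates.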

Compound in experiment [2]: C/C(=N\NC(=S)N1CCC1)/C2=CC=CC=N2 + CS(=O)(=O)N1CCN(Cc2cc3nc(-c4cccc5[nH]ncc45)nc(N4CCOCC4)c3s2)CC1 [Pictilisib] (partner 1 µM)
The method, boiled down: as §1

Compound in experiment [3]: C/C(=N\NC(=S)N1CCC1)/C2=CC=CC=N2 + NC(=O)Nc1cc(-c2cccc(F)c2)sc1C(=O)N[C@H]1CCCNC1 [AZD7762] (partner 0.2 µM)
In a few lines:
as §1

Compound in experiment [4]: C/C(=N\NC(=S)N1CCC1)/C2=CC=CC=N2 + O=C(CCCCCCC(=O)Nc1ccccc1)NO [Vorinostat] (partner 1 µM)
The method, boiled down: as §1

In the case of NCI-H2347, the relative viability in experiment [1] (first compound 0.05 µM) turned out to be 0.321; in experiment [1] (first compound 0.1581 µM), 0.391; in experiment [1] (first compound 0.5 µM), 0.312; in experiment [1] (first compound 1.581 µM), 0.31; in experiment [1] (first compound 5 µM) it was 0.28; in experiment [2] (first compound 0.05 µM), 0.275. The relative viability in experiment [2] (first compound 0.1581 µM) was found to be 0.311; in experiment [2] (first compound 0.5 µM), 0.286; in experiment [2] (first compound 1.581 µM) it was 0.275; in experiment [2] (first compound 5 µM), 0.253; in experiment [3] (first compound 0.05 µM), 0.192; in experiment [3] (first compound 0.1581 µM), 0.235. In addition, the relative viability in experiment [3] (first compound 0.5 µM) is 0.218; in experiment [3] (first compound 1.581 µM) it was 0.198; in experiment [3] (first compound 5 µM), 0.244; in experiment [4] (first compound 0.05 µM), 0.315; in experiment [4] (first compound 0.1581 µM), 0.305; in experiment [4] (first compound 0.5 µM), 0.227. Also, the figures for the relative viability in experiment [4] (first compound 1.581 µM) and in experiment [4] (first compound 5 µM) were 0.276 and 0.243, respectively.

As for NCI-H2126, the relative viability in experiment [1] (first compound 0.05 µM) came out at 0.223; in experiment [1] (first compound 0.1581 µM) it was 0.167; in experiment [1] (first compound 0.5 µM) it was 0.167; in experiment [1] (first compound 1.581 µM), 0.213; in experiment [1] (first compound 5 µM) it was 0.201; in experiment [2] (first compound 0.05 µM) it was 0.247. Also, the relative viability in experiment [2] (first compound 0.1581 µM) was 0.267; in experiment [2] (first compound 0.5 µM), 0.254; in experiment [2] (first compound 1.581 µM), 0.227; in experiment [2] (first compound 5 µM), 0.216; in experiment [3] (first compound 0.05 µM), 0.2; in experiment [3] (first compound 0.1581 µM), 0.19. Besides, the relative viability in experiment [3] (first compound 0.5 µM) stood at 0.214; in experiment [3] (first compound 1.581 µM), 0.189; in experiment [3] (first compound 5 µM), 0.157; in experiment [4] (first compound 0.05 µM), 0.184; in experiment [4] (first compound 0.1581 µM), 0.211; in experiment [4] (first compound 0.5 µM) it was 0.197. Besides, the relative viability in experiment [4] (first compound 1.581 µM) was 0.186; in experiment [4] (first compound 5 µM) it was 0.168.

As for HCC-827, the relative viability in experiment [1] (first compound 0.05 µM) was 0.538; in experiment [1] (first compound 0.1581 µM), 0.583; in experiment [1] (first compound 0.5 µM) it was 0.239; in experiment [1] (first compound 1.581 µM), 0.223; in experiment [1] (first compound 5 µM), 0.17; in experiment [2] (first compound 0.05 µM) it was 0.6. The relative viability in experiment [2] (first compound 0.1581 µM) came to 0.541; in experiment [2] (first compound 0.5 µM), 0.322; in experiment [2] (first compound 1.581 µM), 0.382; in experiment [2] (first compound 5 µM), 0.388; in experiment [3] (first compound 0.05 µM), 0.14; in experiment [3] (first compound 0.1581 µM) it was 0.176. The relative viability in experiment [3] (first compound 0.5 µM) worked out at 0.104; in experiment [3] (first compound 1.581 µM), 0.106; in experiment [3] (first compound 5 µM) it was 0.172; in experiment [4] (first compound 0.05 µM), 0.251; in experiment [4] (first compound 0.1581 µM), 0.214; in experiment [4] (first compound 0.5 µM), 0.18. The relative viability turned out to be 0.233 in experiment [4] (first compound 1.581 µM) and 0.149 in experiment [4] (first compound 5 µM).

Regarding NCI-H3122, the relative viability in experiment [1] (first compound 0.05 µM) is 0.101; in experiment [1] (first compound 0.1581 µM) it was 0.0817; in experiment [1] (first compound 0.5 µM), 0.0973; in experiment [1] (first compound 1.581 µM) it was 0.149; in experiment [1] (first compound 5 µM), 0.158; in experiment [2] (first compound 0.05 µM), 0.15. Moreover, the relative viability in experiment [2] (first compound 0.1581 µM) came out at 0.129; in experiment [2] (first compound 0.5 µM), 0.167; in experiment [2] (first compound 1.581 µM) it was 0.23; in experiment [2] (first compound 5 µM), 0.187; in experiment [3] (first compound 0.05 µM), 0.0944; in experiment [3] (first compound 0.1581 µM), 0.0773. The relative viability in experiment [3] (first compound 0.5 µM) came out at 0.115; in experiment [3] (first compound 1.581 µM), 0.13; in experiment [3] (first compound 5 µM) it was 0.114; in experiment [4] (first compound 0.05 µM), 0.111; in experiment [4] (first compound 0.1581 µM), 0.077; in experiment [4] (first compound 0.5 µM) it was 0.106. The relative viability in experiment [4] (first compound 1.581 µM) came to 0.121; in experiment [4] (first compound 5 µM), 0.103.

For the cell line HOP-62, the relative viability is 0.21 in experiment [1] (first compound 0.05 µM); 0.243 in experiment [1] (first compound 0.1581 µM); 0.114 in experiment [1] (first compound 0.5 µM); 0.116 in experiment [1] (first compound 1.581 µM); 0.112 in experiment [1] (first compound 5 µM); 0.0606 in experiment [2] (first compound 0.05 µM). In addition, the relative viability in experiment [2] (first compound 0.1581 µM) stood at 0.0715; in experiment [2] (first compound 0.5 µM) it was 0.0848; in experiment [2] (first compound 1.581 µM) it was 0.0699; in experiment [2] (first compound 5 µM), 0.0611; in experiment [3] (first compound 0.05 µM), 0.0756; in experiment [3] (first compound 0.1581 µM), 0.0789. The relative viability was 0.0592 in experiment [3] (first compound 0.5 µM); 0.0773 in experiment [3] (first compound 1.581 µM); 0.111 in experiment [3] (first compound 5 µM); 0.0518 in experiment [4] (first compound 0.05 µM); 0.0592 in experiment [4] (first compound 0.1581 µM); 0.0621 in experiment [4] (first compound 0.5 µM). Moreover, the relative viability turned out to be 0.0833 in experiment [4] (first compound 1.581 µM) and 0.0796 in experiment [4] (first compound 5 µM).
